In PubChem BioAssay (NCI):
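Five concentrations, 48 hours, 96-well plates. GI50 is the concentration that inhibits growth by half. TGI denotes the concentration required for complete inhibition of growth.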

Key:
Assay in all cases: NCI tumour cell line growth inhibition, 48 h
[1] = system: ACHN renal
[2] = system: COLO 205 colon
[3] = system: HT29 colon
[4] = system: IGROV1 ovarian
[5] = system: NCI/ADR-RES ovarian
[6] = system: PC-3 prostate
[7] = system: SK-MEL-2 melanoma
[8] = system: SN12C renal
[9] = system: SW-620 colon
[10] = system: UO-31 renal

| Compound | GI50 [1] | TGI [1] | GI50 [2] | TGI [2] | GI50 [3] | TGI [3] | GI50 [4] | TGI [4] | GI50 [5] | TGI [5] | GI50 [6] | TGI [6] | GI50 [7] | TGI [7] | GI50 [8] | TGI [8] | GI50 [9] | TGI [9] | GI50 [10] | TGI [10] |
| --- | --- | --- | --- | --- | --- | --- | --- | --- | --- | --- | --- | --- | --- | --- | --- | --- | --- | --- | --- | --- |
| COc1ccc(Cl)cc1Nc1nc(C(F)(F)F)ccc1C(=O)N/N=C/c1cc(OC)c(OC)c(OC)c1 | 3.28 µM | 11.3 µM | 2.62 µM | 8.33 µM | 3.73 µM | 13.2 µM | 0.346 µM | 2.3 µM | 3.35 µM | 21.6 µM | 2.4 µM | 17.4 µM | 1.76 µM | 5.35 µM | 2.09 µM | 18 µM | 2.79 µM | > 100 µM | 1.24 µM | 3.79 µM |
| Cc1cc(=O)oc2cc(O)c(CN(C)CC(=O)O)cc12 | – | > 100 µM | – | > 100 µM | – | > 100 µM | – | > 100 µM | – | > 100 µM | – | > 100 µM | – | > 100 µM | – | > 100 µM | – | > 100 µM | – | > 100 µM |
| CC1CCN(CC(=O)N2c3ccccc3Sc3cc4ccccc4cc32)CC1 | – | > 100 µM | – | > 100 µM | – | > 100 µM | – | > 100 µM | – | > 100 µM | – | > 100 µM | – | > 100 µM | – | > 100 µM | – | > 100 µM | – | > 100 µM |
| Cc1cc(N/N=C/c2nc(-c3ccc(Cl)cc3)oc2C)c2cc(Cl)ccc2n1 | 1.95 µM | 3.78 µM | 2.31 µM | 6.57 µM | 1.97 µM | 4.95 µM | 3.38 µM | 12.6 µM | 2.19 µM | 5.63 µM | 2.1 µM | 4.81 µM | 16.4 µM | 31.8 µM | 1.94 µM | 4.16 µM | 1.56 µM | 3.51 µM | 12.6 µM | 25.2 µM |
| CCN(CCNc1ccc(C)c2sc3ccccc3c(=O)c12)CC(C)(C)O | 12.3 µM | 34.8 µM | 3 µM | 13.2 µM | 2.68 µM | 7.84 µM | 13.2 µM | 31.5 µM | 14.1 µM | 56.1 µM | 12.9 µM | 53.5 µM | 11.9 µM | 33 µM | 13.2 µM | 28.3 µM | 4.63 µM | 15.8 µM | 7.34 µM | 24.3 µM |
| COc1ccc(C2CC(n3nnnc3-c3ccccc3)=NN2)cc1 (stereo not given) | 1.44 µM | 22.4 µM | 3.5 µM | 11.7 µM | 2.82 µM | 17.9 µM | 2.44 µM | > 100 µM | 4.3 µM | 33.7 µM | 6.28 µM | 72.3 µM | 11.6 µM | 32.7 µM | 12.7 µM | > 100 µM | 2.82 µM | 25.1 µM | 1.39 µM | 11.7 µM |
| O=Cc1ccc(-c2cccs2)s1 | – | > 100 µM | – | 54.8 µM | – | > 68.1 µM | – | 47.4 µM | – | > 100 µM | – | > 100 µM | – | > 100 µM | – | > 100 µM | – | > 100 µM | – | > 100 µM |
